Experiment [1] deals with worker termites (Coptotermes formosanus). The experiment is described as follows: Formicidal test: treated filter paper in petri dish, termite mortality. The experiment is classed as in vivo. The note with it: Coptotermes formosanus, 96 h, filter paper, 25° C., read-out: Mortality of termites after four days. An excerpt:
Examples of the active compounds according to the present invention • I.1: 1-(6-chloro-3-pyridylmethyl)-2-nitromethylene-imidazolidine • I.2: 3-(6-chloro-3-pyridylmethyl)-2-nitromethylene-thiazolidine • I.3: imidacloprid
Comparative compounds • A: phoxim • B: chlorpyriphos Preparation of test formulation: • Solvent: 3 parts by weight of xylene • Emulsifier: 1 part by weight of polyoxyethylene-alkylphenyl-ether
To prepare a suitable formulation of the active compound, 1 part by weight of each of the active compounds was mixed with the above-mentioned amount of the solvent containing the above-mentioned amount of the emulsifier, and the mixture was diluted with water to a predetermined concentration.
1 ml of the aqueous solution prepared in the above-mentioned procedure was uniformly applied using a pipette onto a filter paper that was placed in petri dish of 9 cm diameter. Ten head of worker termites (Coptotermes formosanus) were replaced into the petri dish and it was kept in a constant temperature chamber at 25° C.
After four days, the mortality of the termites was investigated. This test procedure was carried out in duplicate per each concentration of the active compounds under test.

Experiment [2] concerns larvae of Hylotrupes bajulus. As to conditions: comparative values, Holz als Roh- und Werkstoff 35 (1977) 233-237, table 6; cited from earlier work.
Experiment [3] deals with Reticulitermes santonensis. The note with it: comparative values, Holz als Roh- und Werkstoff 35 (1977) 233-237, table 10; cited from earlier work.
The test system of experiment [4] is working termites and soldier termites (Coptotermes formosanus). The experiment is described as follows: whole plant or invertebrate. The note with it: for Degree of xylophagous damage in the pine tree block (0-5): after three weeks. The experiment is classed as in vivo. The method, then: Small blocks of Japanese redpine tree (2 cm×2 cm×2 cm) were soaked for one minute into the aqueous solution prepared by the similar procedure to Example 8.
After air-dried, they were kept in a constant temperature chamber at 40° C. for four weeks. Then each of the thus treated blocks was placed in a polymeric cup (10 cm diameter) containing 150 ml of sandy loam of 20% moisture content. Into each of the polymeric cups, 100 head of working termites and 10 head of soldier termites (Coptotermes formosanus) were released. After three weeks, the degree of xylophagous damage in the block and the mortality of the termites were investigated.

Where [5] appears, read: Coptotermes formosanus, read-out: Mortality termites after three weeks.

Structures are written as SMILES.

The source of these data is patent publication US6936624B2, “Agents for preserving technical materials against insects” (Nihon Bayer Agrochem K.K., priority 1991, dated 2005).

The mortality is the share of the test organisms that died.

For `CCOP(=S)(OCC)O/N=C(\C#N)c1ccccc1` [A, 0-(α-cyanobenzylideneamino)0,0-diethylphosphorothioate, reference compound], the mortality at 0.32 ppm in experiment [1] (0.32 ppm active compound) is 90%; in experiment [4] (setting [5]) it was 0%. Also, the mortality at 1.6 ppm in experiment [1] (1.6 ppm active compound) stood at 100%; in experiment [4] (setting [5]), 0%. For the same compound, the figures for the mortality at 8 ppm in experiment [1] (8 ppm active compound) and in experiment [4] (setting [5]) were 100% and 0%, respectively. Further, the mortality at 40 ppm in experiment [1] (40 ppm active compound) was determined as 100%; in experiment [4] (setting [5]), 25%. The toxic value in experiment [2] was 7-12 g/m^3; in experiment [3], 400 g/m^3. The “Degree of xylophagous damage in the pine tree block (0-5)” value in experiment [4] (0.32 ppm) was determined as 5; in experiment [4] (1.6 ppm) it was 5; in experiment [4] (8 ppm), 5; in experiment [4] (40 ppm) it was 3.
